In ChEMBL document CHEMBL6109108, “A comprehensive review of fused imidazonaphthyridine derivatives: Synthetic approaches and biological applications” (Bioorg Med Chem, 2025):

Legend:
Candida metapsilosis [1] = assay: Antifungal activity against Candida metapsilosis assessed as zone of inhibition at 10 ug/ml by disc diffusion method; assay type: functional; conditions: Lodderomyces metapsilosis, read-out: IZ
Candida metapsilosis [2] = assay: Antifungal activity against Candida metapsilosis assessed as zone of inhibition at 35 ug/ml by disc diffusion method; assay type: functional; conditions: Lodderomyces metapsilosis, read-out: IZ
Staphylococcus aureus [3] = assay: Antibacterial activity against Staphylococcus aureus assessed as zone of inhibition at 35 ug/ml by agar disc diffusion method; assay type: functional; conditions: read-out: IZ
Aspergillus niger [4] = assay: Antifungal activity against Aspergillus niger assessed as zone of inhibition at 35 ug/ml by disc diffusion method; assay type: functional; conditions: read-out: IZ
Aspergillus niger [5] = assay: Antifungal activity against Aspergillus niger assessed as zone of inhibition at 25 ug/ml by disc diffusion method; assay type: functional; conditions: read-out: IZ
Aspergillus niger [6] = assay: Antifungal activity against Aspergillus niger assessed as zone of inhibition at 10 ug/ml by disc diffusion method; assay type: functional; conditions: read-out: IZ
Staphylococcus aureus [7] = assay: Antibacterial activity against Staphylococcus aureus assessed as zone of inhibition at 10 ug/ml by agar disc diffusion method; assay type: functional; conditions: read-out: IZ
Escherichia coli [8] = assay: Antibacterial activity against Escherichia coli assessed as zone of inhibition at 25 ug/ml by agar disc diffusion method; assay type: functional; conditions: read-out: IZ
Candida metapsilosis [9] = assay: Antifungal activity against Candida metapsilosis assessed as zone of inhibition at 25 ug/ml by disc diffusion method; assay type: functional; conditions: Lodderomyces metapsilosis, read-out: IZ
Staphylococcus aureus [10] = assay: Antibacterial activity against Staphylococcus aureus assessed as zone of inhibition at 25 ug/ml by agar disc diffusion method; assay type: functional; conditions: read-out: IZ
Escherichia coli [11] = assay: Antibacterial activity against Escherichia coli assessed as zone of inhibition at 35 ug/ml by agar disc diffusion method; assay type: functional; conditions: read-out: IZ
Escherichia coli [12] = assay: Antibacterial activity against Escherichia coli assessed as zone of inhibition at 10 ug/ml by agar disc diffusion method; assay type: functional; conditions: read-out: IZ
Aphis craccivora = assay: Anti-insecticidal activity against Aphis craccivora; assay type: functional
[13] = target: Voltage-gated inwardly rectifying potassium channel KCNH2 (Homo sapiens, UniProt Q12809); assay: Inhibition of hERG; assay type: toxicity
Sequence of Voltage-gated inwardly rectifying potassium channel KCNH2 (Q12809 whole entry): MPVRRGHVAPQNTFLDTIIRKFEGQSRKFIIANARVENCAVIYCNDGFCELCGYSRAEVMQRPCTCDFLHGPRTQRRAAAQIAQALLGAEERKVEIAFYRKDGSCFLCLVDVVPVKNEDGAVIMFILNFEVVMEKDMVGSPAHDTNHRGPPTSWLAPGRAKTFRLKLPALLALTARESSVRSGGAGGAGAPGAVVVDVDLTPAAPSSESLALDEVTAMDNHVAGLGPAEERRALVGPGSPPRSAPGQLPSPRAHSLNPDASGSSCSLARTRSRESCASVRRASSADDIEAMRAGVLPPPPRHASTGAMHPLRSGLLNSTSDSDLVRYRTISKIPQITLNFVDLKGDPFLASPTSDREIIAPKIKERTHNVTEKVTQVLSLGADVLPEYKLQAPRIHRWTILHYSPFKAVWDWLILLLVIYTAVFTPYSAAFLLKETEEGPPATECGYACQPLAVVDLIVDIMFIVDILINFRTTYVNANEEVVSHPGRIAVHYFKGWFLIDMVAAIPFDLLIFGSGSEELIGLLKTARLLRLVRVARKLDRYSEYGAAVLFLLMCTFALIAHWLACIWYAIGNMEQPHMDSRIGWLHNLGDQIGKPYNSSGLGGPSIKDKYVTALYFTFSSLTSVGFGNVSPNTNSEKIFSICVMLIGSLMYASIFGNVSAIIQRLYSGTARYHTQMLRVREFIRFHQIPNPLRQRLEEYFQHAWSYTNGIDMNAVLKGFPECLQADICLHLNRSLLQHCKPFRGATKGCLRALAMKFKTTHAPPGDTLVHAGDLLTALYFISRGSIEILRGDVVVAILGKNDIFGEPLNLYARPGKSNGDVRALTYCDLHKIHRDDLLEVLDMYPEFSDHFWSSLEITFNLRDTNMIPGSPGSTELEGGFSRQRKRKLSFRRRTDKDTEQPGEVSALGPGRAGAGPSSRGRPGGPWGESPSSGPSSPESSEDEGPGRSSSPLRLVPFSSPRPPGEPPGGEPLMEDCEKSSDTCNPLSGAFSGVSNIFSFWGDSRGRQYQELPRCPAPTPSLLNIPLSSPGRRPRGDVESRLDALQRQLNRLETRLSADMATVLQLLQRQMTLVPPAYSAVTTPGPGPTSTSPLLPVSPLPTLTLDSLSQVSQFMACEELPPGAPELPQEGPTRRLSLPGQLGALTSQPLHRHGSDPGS

Hepatitis C virus = assay: Antiviral activity against Hepatitis C virus genotype 2a infected in human Huh-7 cells assessed as reduction in viral infection; assay type: functional, organism-based, Hepacivirus hominis
Bacillus subtilis [14] = assay: Antibacterial activity against Bacillus subtilis assessed as zone of inhibition at 250 ug/ml by agar disc diffusion method; assay type: functional; conditions: read-out: IZ
Pseudomonas aeruginosa [15] = assay: Antibacterial activity against Pseudomonas aeruginosa assessed as zone of inhibition at 150 ug/ml by agar disc diffusion method; assay type: functional; conditions: read-out: IZ
Escherichia coli [16] = assay: Antibacterial activity against Escherichia coli assessed as zone of inhibition at 200 ug/ml by agar disc diffusion method; assay type: functional; conditions: read-out: IZ
Escherichia coli [17] = assay: Antibacterial activity against Escherichia coli assessed as zone of inhibition at 250 ug/ml by agar disc diffusion method; assay type: functional; conditions: read-out: IZ
Staphylococcus aureus [18] = assay: Antibacterial activity against Staphylococcus aureus assessed as zone of inhibition at 250 ug/ml by agar disc diffusion method; assay type: functional; conditions: read-out: IZ
Staphylococcus aureus [19] = assay: Antibacterial activity against Staphylococcus aureus assessed as zone of inhibition at 150 ug/ml by agar disc diffusion method; assay type: functional; conditions: read-out: IZ
Bacillus subtilis [20] = assay: Antibacterial activity against Bacillus subtilis assessed as zone of inhibition at 150 ug/ml by agar disc diffusion method; assay type: functional; conditions: read-out: IZ
Pseudomonas aeruginosa [21] = assay: Antibacterial activity against Pseudomonas aeruginosa assessed as zone of inhibition at 250 ug/ml by agar disc diffusion method; assay type: functional; conditions: read-out: IZ
Bacillus subtilis [22] = assay: Antibacterial activity against Bacillus subtilis assessed as zone of inhibition at 200 ug/ml by agar disc diffusion method; assay type: functional; conditions: read-out: IZ
Escherichia coli [23] = assay: Antibacterial activity against Escherichia coli assessed as zone of inhibition at 150 ug/ml by agar disc diffusion method; assay type: functional; conditions: read-out: IZ
Pseudomonas aeruginosa [24] = assay: Antibacterial activity against Pseudomonas aeruginosa assessed as zone of inhibition at 200 ug/ml by agar disc diffusion method; assay type: functional; conditions: read-out: IZ
Staphylococcus aureus [25] = assay: Antibacterial activity against Staphylococcus aureus assessed as zone of inhibition at 200 ug/ml by agar disc diffusion method; assay type: functional; conditions: read-out: IZ
hERG (KCNH2) = hERG (KCNH2) (Homo sapiens, UniProt Q12809); assay: Inhibition of hERG potassium […] at 100 uM relative to control; assay type: toxicity
Sequence of hERG (KCNH2) (Q12809 whole entry, the tested form may be a part): as the sequence (Q12809 whole entry) above

Bacillus subtilis [26] = assay: Antibacterial activity against Bacillus subtilis assessed as diameter of zone of inhibition at 400 ug/ml by agar disk diffusion method; assay type: functional; conditions: read-out: IZ
Escherichia coli [27] = assay: Antibacterial activity against Escherichia coli assessed as zone of inhibition at 400 ug/ml by agar disk diffusion method; assay type: functional; conditions: read-out: IZ
Bacillus subtilis [28] = assay: Antibacterial activity against Bacillus subtilis assessed as diameter of zone of inhibition at 600 ug/ml by agar disk diffusion method; assay type: functional; conditions: read-out: IZ
Escherichia coli [29] = assay: Antibacterial activity against Escherichia coli assessed as zone of inhibition at 600 ug/ml by agar disk diffusion method; assay type: functional; conditions: read-out: IZ
Escherichia coli [30] = assay: Antibacterial activity against Escherichia coli assessed as zone of inhibition at 10 ug/ml by agar well diffusion method; assay type: functional; conditions: read-out: IZ
Staphylococcus aureus [31] = assay: Antibacterial activity against Staphylococcus aureus assessed as zone of inhibition at 10 ug/ml by agar well diffusion method; assay type: functional; conditions: read-out: IZ
Escherichia coli [32] = assay: Antibacterial activity against Escherichia coli assessed as zone of inhibition at 35 ug/ml by agar well diffusion method; assay type: functional; conditions: read-out: IZ
Escherichia coli [33] = assay: Antibacterial activity against Escherichia coli assessed as zone of inhibition at 25 ug/ml by agar well diffusion method; assay type: functional; conditions: read-out: IZ
Staphylococcus aureus [34] = assay: Antibacterial activity against Staphylococcus aureus assessed as zone of inhibition at 35 ug/ml by agar well diffusion method; assay type: functional; conditions: read-out: IZ
Staphylococcus aureus [35] = assay: Antibacterial activity against Staphylococcus aureus assessed as zone of inhibition at 25 ug/ml by agar well diffusion method; assay type: functional; conditions: read-out: IZ

O=c1oc2ccccc2cc1-c1cnc2c(-c3cccc([N+](=O)[O-])c3)cc3cccnc3n12
zone of inhibition at 10 µg/mL (Candida metapsilosis [1]): 7 mm
zone of inhibition at 35 µg/mL (Candida metapsilosis [2]): 28 mm
zone of inhibition at 35 µg/mL (Staphylococcus aureus [3]): 31 mm
zone of inhibition at 35 µg/mL (Aspergillus niger [4]): 28 mm
zone of inhibition at 25 µg/mL (Aspergillus niger [5]): 20 mm
zone of inhibition at 10 µg/mL (Aspergillus niger [6]): 7 mm
zone of inhibition at 10 µg/mL (Staphylococcus aureus [7]): 8 mm
zone of inhibition at 25 µg/mL (Escherichia coli [8]): 2 mm
zone of inhibition at 25 µg/mL (Candida metapsilosis [9]): 17 mm
zone of inhibition at 25 µg/mL (Staphylococcus aureus [10]): 19 mm
zone of inhibition at 35 µg/mL (Escherichia coli [11]): 32 mm
zone of inhibition at 10 µg/mL (Escherichia coli [12]): 8 mm

N#Cc1c(N)nc2c(c1N)C(c1ccc(C(F)(F)F)cc1)C([N+](=O)[O-])=C1N(Cc3ccc(Cl)nc3)CCN12 (stereo not given)
LC50 (Aphis craccivora): 31 nM

Cc1cc(C)c2ccc3nc(-c4ccc(F)cc4)c(CN4CCOCC4)n3c2n1
IC50 [13]: > 50000 nM

Cc1cc(C)c2ccc3nc(-c4ccccc4)c(CN4CCCCC4)n3c2n1
IC50 [13]: 1190 nM

N#Cc1c(N)nc2c(c1N)C(c1ccc(F)cc1)C([N+](=O)[O-])=C1N(Cc3ccc(Cl)nc3)CCN12 (stereo not given)
LC50 (Aphis craccivora): 11 nM

O=c1oc2ccccc2cc1-c1cnc2c(-c3cccc(O)c3)cc3cccnc3n12
zone of inhibition at 10 µg/mL (Candida metapsilosis [1]): 7 mm
zone of inhibition at 35 µg/mL (Candida metapsilosis [2]): 28 mm
zone of inhibition at 35 µg/mL (Staphylococcus aureus [3]): 31 mm
zone of inhibition at 35 µg/mL (Aspergillus niger [4]): 28 mm
zone of inhibition at 25 µg/mL (Aspergillus niger [5]): 20 mm
zone of inhibition at 10 µg/mL (Aspergillus niger [6]): 7 mm
zone of inhibition at 10 µg/mL (Staphylococcus aureus [7]): 8 mm
zone of inhibition at 25 µg/mL (Escherichia coli [8]): 2 mm
zone of inhibition at 25 µg/mL (Candida metapsilosis [9]): 17 mm
zone of inhibition at 25 µg/mL (Staphylococcus aureus [10]): 19 mm
zone of inhibition at 35 µg/mL (Escherichia coli [11]): 32 mm
zone of inhibition at 10 µg/mL (Escherichia coli [12]): 8 mm

Cc1cc(C)c2ccc3nc(-c4ccccc4)c(CN4CCCC4)n3c2n1
IC50 [13]: 92200 nM

O=[N+]([O-])c1cccc(-c2cc3cccnc3n3c(-c4ccc(Cl)cc4)cnc23)c1
zone of inhibition at 10 µg/mL (Candida metapsilosis [1]): 7 mm
zone of inhibition at 35 µg/mL (Candida metapsilosis [2]): 28 mm
zone of inhibition at 35 µg/mL (Staphylococcus aureus [3]): 29 mm
zone of inhibition at 35 µg/mL (Aspergillus niger [4]): 28 mm
zone of inhibition at 25 µg/mL (Aspergillus niger [5]): 20 mm
zone of inhibition at 10 µg/mL (Aspergillus niger [6]): 7 mm
zone of inhibition at 10 µg/mL (Staphylococcus aureus [7]): 8 mm
zone of inhibition at 25 µg/mL (Escherichia coli [8]): 20 mm
zone of inhibition at 25 µg/mL (Candida metapsilosis [9]): 17 mm
zone of inhibition at 25 µg/mL (Staphylococcus aureus [10]): 19 mm
zone of inhibition at 35 µg/mL (Escherichia coli [11]): 30 mm
zone of inhibition at 10 µg/mL (Escherichia coli [12]): 8 mm

COc1ccc(-c2cc3c(C(F)(F)F)cc(C(F)(F)F)nc3n3c(-c4ccc(OC)cc4)cnc23)cc1
EC50 (Hepatitis C virus): 4100 nM

Oc1ccc2nc3c(-c4ccccc4C(F)(F)F)cc4cccnc4n3c2c1
zone of inhibition at 250 µg/mL (Bacillus subtilis [14]): 23 mm
zone of inhibition at 150 µg/mL (Pseudomonas aeruginosa [15]): 17 mm
zone of inhibition at 200 µg/mL (Escherichia coli [16]): 22 mm
zone of inhibition at 250 µg/mL (Escherichia coli [17]): 22 mm
zone of inhibition at 250 µg/mL (Staphylococcus aureus [18]): 22 mm
zone of inhibition at 150 µg/mL (Staphylococcus aureus [19]): 18 mm
zone of inhibition at 150 µg/mL (Bacillus subtilis [20]): 16 mm
zone of inhibition at 250 µg/mL (Pseudomonas aeruginosa [21]): 22 mm
zone of inhibition at 200 µg/mL (Bacillus subtilis [22]): 19 mm
zone of inhibition at 150 µg/mL (Escherichia coli [23]): 17 mm
zone of inhibition at 200 µg/mL (Pseudomonas aeruginosa [24]): 20 mm
zone of inhibition at 200 µg/mL (Staphylococcus aureus [25]): 20 mm

Cc1cc(C)c2ccc3nc(-c4ccccc4)c(CN4CCOCC4)n3c2n1
inhibition at 100 µM (hERG (KCNH2)): 10.1%

COc1ccc(-c2cc3cccnc3n3c2nc2ccccc23)cc1
zone of inhibition at 400 µg/mL (Bacillus subtilis [26]): 7.5 mm
zone of inhibition at 400 µg/mL (Escherichia coli [27]): 11.5 mm
zone of inhibition at 600 µg/mL (Bacillus subtilis [28]): 8.5 mm
zone of inhibition at 600 µg/mL (Escherichia coli [29]): 12.5 mm

Fc1ccc(-c2cc3cccnc3n3c(-c4ccc(Br)cc4)cnc23)c(Cl)c1
zone of inhibition at 10 µg/mL (Escherichia coli [30]): 6 mm
zone of inhibition at 10 µg/mL (Staphylococcus aureus [31]): 6 mm
zone of inhibition at 35 µg/mL (Escherichia coli [32]): 25 mm
zone of inhibition at 25 µg/mL (Escherichia coli [33]): 16 mm
zone of inhibition at 35 µg/mL (Staphylococcus aureus [34]): 24 mm
zone of inhibition at 25 µg/mL (Staphylococcus aureus [35]): 16 mm
